Experimental data published in US20070259060A1, “Formulations and Methods for Treating Breast Cancer with Morinda Citrifolia and Methylsulfonymethane” (priority 2003, published 2007).

Legend:
[1] = test system: mammary gland tumorigenesis induced by estrogen; assay: E2-induced mammary tumors (Example Four); type: in vivo, female ACI rats
Description: FIG. 2 is a graphical representation of the preventative effects of Morinda citrifolia-containing compounds on mammary gland tumorigenesis induced by estrogen in female ACI rats in accordance with the present invention.
Sixty five-week old female rats were divided into four groups of fifteen rats each and placed on regular diets. Another eight female rats served as age-matched controls. One group of experimental rats was given 5% placebo in drinking water, the second experimental group was given 5% Morinda citrifolia juice in drinking water, the third experimental group was given 5% Methylsulfonylmethane (“MSM”) in drinking water, and the fourth experimental group was given a combination of 5% Morinda citrifolia juice and 5% MSM in drinking water. Two weeks later, all animals were implanted subcutaneously with a 25 mg pellet containing 22.5 mg of 17β-estradiol (E2) mixed with 2.5 mg cholesterol. Each experimental group was provided with its respective formulation for ninety days following estrogen (E2) implantation. The age-matched control animals received a 25 mg cholesterol pellet implant.
All rats with an E2 implant in the placebo group had mammary gland tumors. One hundred percent (100%) of the rats in this group had three to seven tumors. Seventy-one percent (71%) of the rats in the Morinda citrifolia group had two to five tumors. Fifty-seven percent (57%) of the rats in the MSM group had one to four tumors. Forty-three percent (43%) of the rats in the combination group had zero to three tumors.
The average tumor area in the placebo group, Morinda citrifolia group, MSM group, and combination group at 180 days after E2 implantation were 17, 12, 10 and 6 mm^2, respectively. The survival rates of the control, placebo, Morinda citrifolia, MSM and combination groups one hundred and sixty days after E2 implantation were 100%, 0%, 47%, 73%, and 87%, respectively. The survival rates of each group at one hundred eighty days after E2 implantation was 100%, 0%, 0%, 20% and 60%, respectively. At two hundred days, the survival rates of each group were 100%, 0%, 0%, 0%, and 27%, respectively.

[2] = test system: mammary carcinogenesis induced by DMBA; assay: DMBA-induced mammary carcinogenesis, Morinda citrifolia/MSM combination (Example Five); type: in vivo, female SD rats
Description: In research supporting the present invention, the cancer preventive effects of Morinda citrifolia, MSM, and their combination at the initiation stage of multiple stage chemical carcinogenesis was investigated on a mammary breast carcinogenic animal model induced by DMBA in female SD rats. In the experiment, seventy-five female SD rats were divided into five groups: age-matched control, DMBA, 5% Morinda citrifolia+DMBA, 5% MSM+DMBA, and 5% Morinda citrifolia+5% MSM+DMBA groups. The experiment was started at the 35th postnatal day with water being given to the age-matched control group and the DMBA group, while 5% Morinda citrifolia, 5% MSM, and 5% Morinda citrifolia+5% MSM was supplied to the Morinda citrifolia, MSM, and Morinda citrifolia+MSM+DMBA groups. DMBA (25 mg/kg) was administered by mouth at the 50th postnatal day in the DMBA, Morinda citrifolia+DMBA, MSM+DMBA, and Morinda citrifolia+MSM+DMBA groups. Morinda citrifolia, MSM, Morinda citrifolia+MSM were continuously supplied for an additional 90 days after DMBA administration. All animals were sacrificed at the 9th month after DMBA treatment to examine the pathological changes in the mammary glands by light microscopy. […] Therefore, this synergistic combination regimen may contribute to human breast cancer prevention at the initiation stage of carcinogenesis. […]

[3] = 5% in drinking water from two weeks before to ninety days after E2 implantation

CS(C)(=O)=O [MSM, methylsulfonylmethane]
number of tumors per rat [1, 3]: one to four
percent of the rats with mammary tumors [1, 3]: 57%
body weight ([1]; 5% in drinking water, E2 implant): slight body weight loss
average tumor area ([1]; 180 days after E2 implantation): 10 mm^2
survival rate ([1]; one hundred and sixty days after E2 implantation): 73%
survival rate ([1]; one hundred eighty days after E2 implantation): 20%
survival rate ([1]; two hundred days after E2 implantation): 0%
mild hyperplasia ([2]; 5% each, sacrificed 9th month after DMBA): 75%
benign tumor or carcinoma in mammary glands by light microscopy ([2]; 5% from 35th postnatal day until 90 days after DMBA 25 mg/kg by mouth, sacrificed 9th month): No benign tumor or carcinoma was observed
